Laboratory results from US6320051A, “Quinolones used as MRS inhibitors and bactericides” (SmithKline Beecham plc, priority 1998, dated 2001).
Converted amounts (≈) assume the structure as drawn. Counter-ions that a name gives are not always drawn. Like-named read-outs stand apart in the source and are kept apart here.

Key:
[1] = tested on: M. Catarrhalis; experiment: Antibacterial activity, standard MIC assay modified by inclusion of cyclodextrin; assay type: cell-based; details: Moraxella catarrhalis; MIC assay with cyclodextrin; range over the listed Examples; read-out: MIC against M. Catarrhalis
Description: (§1) Compounds of the present invention were assayed for antibacterial activity against a range of pathogenic organisms (strains of S aureus, S pneumoniae, E faecalis, H influenzae and M catarrhalis) in a standard MIC assay modified by the inclusion of cyclodextrin, to assist with solubility.

[2] = tested on: S. aureus, S. pneunmoniae, and E. faecalis; experiment: as above; assay type: cell-based; details: read-out: MIC against some strains of S. aureus, S. pneumoniae and E. faecalis
Description: as §1

[3] = tested on: H. influenzae; experiment: as above; assay type: cell-based; details: MIC assay with cyclodextrin
Description: as §1

[4] = tested on: isoleucyl t-RNA synthetase; details: background of the invention; cited from earlier work
[5] = some strains of the organisms, MIC assay with cyclodextrin

Row | Structure (SMILES) | MIC [1] | MIC [2] | MIC [2, 5] | antibacterial activity against H. influenzae [3] | inhibition of isoleucyl t-RNA synthetase [4]
1 | Cl.O=c1cc(NCCCNCc2ccc(Cl)c(Cl)c2)[nH]c2ccccc12 [Example 18, 2-[3-(3,4-Dichlorobenzylamino)prop-1-ylamino]-1H-quinolin-4-one hydrochloride] | 2 to 64 µg/mL | < 1 µg/mL |  |  | 
2 | O=c1cc(NCCCNCc2cc(I)cc(I)c2)[nH]c2ccccc12 [Example 36, 2-[3-(3,5-Diiodobenzylamino)prop-1-ylamino]-1H-quinolin-4-one] | 2 to 64 µg/mL (≈ 3.58 to 114 µM) |  | < 1 µg/mL |  | 
3 | O=c1cc(NCCCNCc2cc(Br)c(Br)s2)[nH]c2ccccc12 [Example 37] | 2 to 64 µg/mL (≈ 4.24 to 136 µM) |  | < 1 µg/mL |  | 
4 | O=c1cc(NCCCNCc2ccc(Cl)c(C(F)(F)F)c2)[nH]c2ccccc12 [Example 38, 2-[3-(4-Chloro-3-trifluoromethylbenzylamino)prop-1-ylamino]-1H-quinolin-4-one] | 2 to 64 µg/mL (≈ 4.88 to 156 µM) |  | < 1 µg/mL |  | 
5 | O=c1cc(NCCCNCc2cc(Cl)cc(Cl)c2OCc2ccccc2)[nH]c2ccccc12 [Example 39, 2-[3-(2-Benzyloxy-3,5-dichlorobenzylamino)prop-1-ylamino]-1H-quinolin-4-one] | 2 to 64 µg/mL (≈ 4.15 to 133 µM) |  | < 1 µg/mL |  | 
6 | O=c1cc(NCCCNCc2cc(Br)cc(Br)c2)[nH]c2ccccc12 [Example 40, 2-[3-(3,5-Dibromobenzylamino)prop-1-ylamino]-1H-quinolin-4-one] | 2 to 64 µg/mL (≈ 4.3 to 138 µM) |  | < 1 µg/mL |  | 
7 | Cc1c(Br)cc(CNCCCNc2cc(=O)c3ccccc3[nH]2)cc1Br [Example 41, 2-[3-(3,5-Dibromo-4-methylbenzylamino)prop-1-ylamino]-1H-quinolin-4-one] | 2 to 64 µg/mL (≈ 4.17 to 134 µM) |  | < 1 µg/mL |  | 
8 | O=c1cc(NCCCNCc2cc(Br)c(Br)c(Br)c2)[nH]c2ccccc12 [Example 42, 2-[3-(3,4,5-Tribromobenzylamino)prop-1-ylamino]-1H-quinolin-4-one] | 2 to 64 µg/mL (≈ 3.68 to 118 µM) |  | < 1 µg/mL |  | 
9 | O=c1cc(NCCCNCc2cc(Br)cc(I)c2)[nH]c2ccccc12 [Example 43, 2-[3-(3-Bromo-5-iodobenzylamino)prop-1-ylamino]-1H-quinolin-4-one] | 2 to 64 µg/mL (≈ 3.9 to 125 µM) |  | < 1 µg/mL |  | 
10 | O=c1cc(NCCCNCc2cc(Cl)cc(Cl)c2Cl)[nH]c2ccccc12 [Example 45, 2-[3-(2,3,5-Trichliorobenzylamino)prop-1-ylamino]-1H-quinolin-4-one dihydrochloride] | 2 to 64 µg/mL |  | < 1 µg/mL |  | 
11 | CCOc1c(Br)cc(Br)cc1CNCCCNc1cc(=O)c2ccccc2[nH]1.Cl.Cl [Example 46, 2-[3-(3,5-Dibromo-2-ethoxybenzylamino)prop-1-ylamino]-1H-quinolin-4-one dihydrochloride] | 2 to 64 µg/mL |  | < 1 µg/mL |  | 
12 | O=c1cc(NCCCNC2CCc3c(Cl)sc(Cl)c32)[nH]c2ccccc12 (stereo not shown) [Example 47, 2-[3-(1,3-Dichloro-5,6-dihydro-4H-cyclopenta[c]thiophen-4-ylamino]prop-1-ylamino}-1H-quinolin-4-one] | 2 to 64 µg/mL (≈ 4.9 to 157 µM) |  | < 1 µg/mL |  | 
13 | O=c1cc(NCCCNC2CCCc3c(Cl)cc(Cl)cc32)[nH]c2ccccc12 (stereo not shown) [Example 51, 2-[3-(5,7-Dichloro-1,2,3,4-tetrahydronaphth-1-ylamino)prop-1-ylamino]-1H-quinolin-4-one] | 2 to 64 µg/mL (≈ 4.8 to 154 µM) | < 1 µg/mL |  |  | 
14 | O=c1cc(NCCCNC2CCCc3c2cc(Cl)c(Cl)c3Cl)[nH]c2ccccc12 (stereo not shown) [Example 53, 2-[3-(5,6,7-Trichloro-1,2,3,4-tetrahydronaphth-1-ylamino)prop-1-ylamino]-1H-quinolin-4-one] | 2 to 64 µg/mL (≈ 4.44 to 142 µM) | < 1 µg/mL |  |  | 
15 | O=c1cc(NCCCNC2CCc3c(Cl)cc(Cl)cc32)[nH]c2ccccc12 (stereo not shown) [Example 55, 2-[3-(4,6-Dichloroindan-1-ylamino)prop-1-ylamino]-1H-quinolin-4-one] | 2 to 64 µg/mL (≈ 4.97 to 159 µM) | < 1 µg/mL |  |  | 
16 | O=c1cc(NCC2CCCC2NCc2ccc(Cl)c(Cl)c2)[nH]c2ccccc12 (stereo not shown) [Example 60, 2-{[2-(3,4-Dichlorobenzylamino)cyclopentyl]methylamino}-1H-quinolin-4-one] | 2 to 64 µg/mL (≈ 4.8 to 154 µM) | < 1 µg/mL |  |  | 
17 | O=c1cc(NCCCNC2CCCc3c2[nH]c2ccccc32)[nH]c2ccccc12 (stereo not shown) [Example 64, 2-[3-(2,3,4,9-Tetrahydro-1H-carbazol-1-ylamino)prop-1-ylamino]-1H-quinolin-4-one] |  |  |  | active | 
18 | CC(C)(C)OC(=O)COc1c(Cl)cc(Cl)cc1CNCCCNc1cc(=O)c2ccccc2[nH]1 [Example 67, 2-[3-(2-tert-Butoxycarbonylmethoxy-3,5-dichlorobenzylamino)prop-1-ylamino]-1H-quinolin-4-one] | 2 to 64 µg/mL (≈ 3.95 to 126 µM) |  | < 1 µg/mL |  | 
19 | C=CCOc1c(Cl)cc(Cl)cc1CNCCCNc1cc(=O)c2ccccc2[nH]1 [Example 68, 2-[3-(2-Allyloxy-3,5-dichlorobenzylamino)prop-1-ylamino]-1H-quinolin-4-one] | 2 to 64 µg/mL (≈ 4.63 to 148 µM) |  | < 1 µg/mL |  | 
20 | O=c1cc(NCCCNCc2cc(Cl)cc(Cl)c2OCCc2ccccc2)[nH]c2ccccc12 [Example 69, 2-[3-(3,5-Dichloro-2-phenethoxybenzylamino)propylamino]-1H-quinolin-4-one] | 2 to 64 µg/mL (≈ 4.03 to 129 µM) |  | < 1 µg/mL |  | 
21 | O=c1cc(NC[C@H]2CCC[C@@H]2NCc2ccc(Cl)c(Cl)c2)[nH]c2ccccc12 [Example 71, 2-{[(1R,2S)-2-(3,4-Dichlorobenzylamino)cyclopentylmethyl]amino}-1H-quinolin-4-one] | 2 to 64 µg/mL (≈ 4.8 to 154 µM) | < 1 µg/mL |  |  | 
22 | O=c1cc(NC[C@H]2CCC[C@@H]2NCc2cc(Br)cc(Br)c2)[nH]c2ccccc12 [Example 73, 2-{[(1R,2S)-2-(3,5-Dibromobenzylamino)cyclopentyl-methyl]amino}-1H-quinolin-4-one] | 2 to 64 µg/mL (≈ 3.96 to 127 µM) |  | < 1 µg/mL |  | 
23 | O=c1cc(NC[C@H]2CCC[C@@H]2NCc2cc(Br)c(Br)s2)[nH]c2ccccc12 [Example 74, 2-{[(1R,2S)-2-(4,5-Dibromo-2-thiophenemethylamino)-cyclopentylmethyl]amino}-1H-quinolin-4-one] | 2 to 64 µg/mL (≈ 3.91 to 125 µM) |  | < 1 µg/mL |  | 
24 | CCOc1c(Br)cc(Br)cc1CN[C@H]1CCC[C@@H]1CNc1cc(=O)c2ccccc2[nH]1 [Example 75, 2-{[(1R,2S)-2-(3,5-Dibromo-2-ethoxybenzylamino)cyclopentyl-methyl]amino}-1H-quinolin-4-one] | 2 to 64 µg/mL (≈ 3.64 to 117 µM) |  | < 1 µg/mL |  | 
25 | O=c1cc(NCCCNCc2cc3c(Cl)cc(Cl)cc3[nH]2)[nH]c2ccccc12 [Example 76, 2-[3-(4,6-Dichloroindol-2-ylmethylamino)prop-1-ylamino]-1H-quinolin-4-one] | 2 to 64 µg/mL (≈ 4.82 to 154 µM) |  | < 1 µg/mL |  | 
26 | Nc1c(Br)cc(Br)cc1CNCCCNc1cc(=O)c2ccccc2[nH]1 [Example 77, 2-[3-(2-Amino-3,5-dibromobenzylamino)prop-1-ylamino]-1H-quinolin-4-one] | 2 to 64 µg/mL (≈ 4.16 to 133 µM) |  | < 1 µg/mL |  | 
27 | C/C(=C\C(=O)OCCCCCCCCC(=O)O)C[C@@H]1OC[C@H](C[C@@H]2O[C@H]2[C@@H](C)[C@H](C)O)[C@@H](O)[C@H]1O [Mupirocin] |  |  |  |  | inhibitor
